The source of these data is patent US8124793B2, “Derivatives of ethylene methanedisulfonate as cancer chemotherapeutic agents” (priority 2007, dated 2012).

The test system of one data set is K562. The data set is described as follows: NCI screen, growth of human tumor cells: Leukemia K562. It is filed as cell-based. As to conditions: K562 (Leukemia), 10^−4 molar. In short, it runs like this:
(§1)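 Under the NCI protocol, every compound is profiled with sixty or more data points. Each point ties a cancer type and a molar screening concentration to a percent growth value.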

The next data set has as its system SNB-75. The data set is described as follows: NCI screen, growth of human tumor cells: CNS Cancer SNB-75. It is filed as cell-based. As to conditions: SNB-75 (CNS Cancer), 10^−4 molar. The procedure, abridged:
as §1

The next data set relates to UACC-62. The data set is described as follows: NCI screen, growth of human tumor cells: Melanoma UACC-62. It is filed as cell-based. As to conditions: UACC-62 (Melanoma), 10^−4 molar. The procedure, abridged: as §1
Another data set deals with 786-0. The data set is described as follows: NCI screen, growth of human tumor cells: Renal Cancer 786-0. As to conditions: 786-0 (Renal Cancer), 10^−4 molar. It is filed as cell-based. In short, it runs like this: as §1
In a further data set the test system is NCI-H460. The data set is described as follows: NCI screen, growth of human tumor cells: Non-Small Cell Lung NCI-H460. It is filed as cell-based. The following applies: NCI-H460 (Non-Small Cell Lung), 10^−4 molar. In short, it runs like this:
as §1

Data set [1] relates to lymphocytic leukemia, lymphoid leukemia, melanocarcinoma, human breast xenograft and ovarian carcinoma. The following applies: disclosure of U.S. Pat. No. 4,950,768; cited from earlier work.
In another data set the test system is CAKI-1. The data set is described as follows: NCI screen, growth of human tumor cells: Renal Cancer CAKI-1. Format: cell-based. The following applies: CAKI-1 (Renal Cancer), 10^−4 molar. The procedure, abridged: as §1
The next data set concerns HOP-92. The data set is described as follows: NCI screen, growth of human tumor cells: Non-Small Cell Lung HOP-92. Format: cell-based. As to conditions: HOP-92 (Non-Small Cell Lung), 10^−4 molar. In short, it runs like this:
as §1

Another data set has as its system ACHN. The data set is described as follows: NCI screen, growth of human tumor cells: Renal Cancer ACHN. Format: cell-based. The following applies: ACHN (Renal Cancer), 10^−4 molar. In short, it runs like this: as §1
The next data set concerns SNB-19. The data set is described as follows: NCI screen, growth of human tumor cells: CNS Cancer SNB-19. It is filed as cell-based. The following applies: SNB-19 (CNS Cancer), 10^−4 molar. The procedure, abridged: as §1
The next data set deals with CCRF-CEM. The data set is described as follows: NCI screen, growth of human tumor cells: Leukemia CCRF-CEM. The following applies: CCRF-CEM (Leukemia), 10^−4 molar. Format: cell-based. In short, it runs like this:
as §1

The next data set deals with MOLT-4. The data set is described as follows: NCI screen, growth of human tumor cells: Leukemia MOLT-4. Format: cell-based. The following applies: MOLT-4 (Leukemia), 10^−4 molar. In short, it runs like this:
as §1

A word on the melting point: it is the temperature, or range, at which the solid turns liquid. In turn, `O=S1(=O)CS(=O)(=O)OCCO1` [NSC 348948, ethylene methanedisulfonate] returned a melting point of 176 to 180 °C. In the data set on K562, the “percent of growth of human tumor cells” value is given as 5%. The “percent of growth of human tumor cells” value with SNB-75 was 18%. In addition, in the data set on UACC-62, the “percent of growth of human tumor cells” value is −13%. Further, in the data set with 786-0, the “percent of growth of human tumor cells” value was 24%. Moreover, the “percent of growth of human tumor cells” value in the data set on NCI-H460 came to 6%. Moreover, the “effectiveness in the treatment of mice cancers” value in data set [1] is reported as “effective”. Further, the “percent of growth of human tumor cells” value with CAKI-1 is on record as −6%. The “percent of growth of human tumor cells” value in the data set on HOP-92 stood at 6%. The “percent of growth of human tumor cells” value in the data set with ACHN is 22%. Further, the “percent of growth of human tumor cells” value in the data set on SNB-19 is listed as 18%. In addition, the “percent of growth of human tumor cells” value in the data set on CCRF-CEM was −3%. For the same compound, the “percent of growth of human tumor cells” value in the data set with MOLT-4 stood at 5%.
